Assay results: publication PMC7593677, “Discovery of N-(2-Amino-4-Fluorophenyl)-4-[bis-(2-Chloroethyl)-Amino]-Benzamide as a Potent HDAC3 Inhibitor” (Frontiers in Oncology, 2020)
Read-outs that look alike come from different tables or passages of the source.

Legend:
HepG2 cells [1] = assay: Drug combination analysis (MTT assay); assay type: cell-based; conditions: Homo sapiens, 48 h, read-out: Percentage inhibition rate (PIR)
Procedure: The efficacy of drug combination of FNA with taxol and camptothecin was evaluated via cell viability assay (MTT assay). The stock solutions of tested compounds were diluted to the desired concentrations with culture medium. The cells were cultured in 96-well plates at a density 5 × 10^3 cells per well and incubated until 90–95% confluence, and then 100 μL of medium containing desired concentrations of test compounds was added to the wells. Following 48-h incubation, 10 μL of MTT working solution was added to each well and incubated for another 4 h. After removal of the medium, 200 μL DMSO was added to each well to dissolve the formed formazan. The plates were vortexed for 10 min to ensure complete dissolution. Then the OD was acquired with a microplate reader at 490 and 630 nm.

HepG2 cells xenograft = tested on: HepG2 cells xenograft; parameters: method as in PMID 31543818; conditions: nude mice xenograft model; cited from earlier work
HDAC1 = target: T1, HDAC1 (Homo sapiens, UniProt Q13547); assay: HDAC enzyme inhibition assay (fluorogenic substrate); assay type: biochemical; conditions: recombinant enzyme, n ≥ 2, SD <10% of mean
T1 construct: purchased BPS Bioscience
Procedure: (§1) All of the HDAC enzymes tested were purchased from BPS Bioscience. First, 20 μL of each recombinant HDAC enzyme solution (HDAC1, 2, 3, 4, 6, 7, 8, and 9) was mixed with various concentrations of tested compound samples (20 μL) in a 96-well plate. The mixture was incubated at 30°C for 1 h for the dose-dependent assay. Additionally, mixtures were incubated for 15, 30, 60, and 90 min, for the time-dependent assay, and then 10 μL of fluorogenic substrate [3 mM Boc-Lys(acetyl)-AMC or Boc-Lys (trifluoroacetyl)-AMC for HDAC1/2/3/6 or HDAC4/7/8/9, respectively] was added. Then, the acetylation reaction was initiated by adding HDAC substrate working solution and incubating at 30°C for 2 h. After the desired time, 10 μL developer with trypsin and trichostatin A was added to stop the reaction, and then the mixture was incubated at 30°C for another 30 min.
(§2) A microplate reader was used to determine fluorescence intensity at excitation: 360 nm and emission: 460 nm. The inhibition ratios were calculated by comparing the fluorescence intensities from tested wells to those of controls. The IC50 curves and values were then obtained with GraphPad Prism 6.0 software.

HDAC6 = target: T2, HDAC6 (Homo sapiens, UniProt Q9UBN7); assay: as above; assay type: biochemical
T2 construct: purchased BPS Bioscience
Procedure: as §1, §2

HDAC7 = target: T3, HDAC7 (Homo sapiens, UniProt Q8WUI4); assay: as above; assay type: biochemical; conditions: recombinant enzyme, n ≥ 2, SD <10% of mean
T3 construct: purchased BPS Bioscience
Procedure: as §1, §2

HDAC2 = target: T4, HDAC2 (Homo sapiens, UniProt Q92769); assay: biochemical; conditions: recombinant enzyme, n ≥ 2, SD <10% of mean
T4 construct: purchased BPS Bioscience
Procedure: as §1, §2

HDAC4 = target: T5, HDAC4 (Homo sapiens, UniProt P56524); assay: biochemical
T5 construct: purchased BPS Bioscience
Procedure: as §1, §2

HDAC8 = target: T6, HDAC8 (Homo sapiens, UniProt Q9BY41); assay: biochemical
T6 construct: purchased BPS Bioscience
Procedure: as §1, §2

HDAC9 = target: T7, HDAC9 (Homo sapiens, UniProt Q9UKV0); assay: biochemical
T7 construct: purchased BPS Bioscience
Procedure: as §1, §2

HDAC3 = target: T8, HDAC3 (Homo sapiens, UniProt O15379); assay: biochemical; assay type: biochemical
T8 construct: purchased BPS Bioscience
Procedure: as §1, §2

HepG2 cells [2] = assay: Antiproliferative MTT assay; assay type: cell-based, human
Procedure: (§3) The stock solutions of compounds to be tested were prepared in culture medium. […] To determine cell viability, 20 μL MTT working solution (5 mg/mL) was then added to each well and incubated for another 4 h. After this incubation, the medium was carefully aspirated, and 200 μL dimethyl sulfoxide (DMSO) was added to each well and vibrated for 10 min to make sure formed formazans were completely dissolved. The optical densities (ODs) at 490 and 630 nm were counted by Universal Microplate Spectrophotometer. […] Origin 7.5 software was used to calculate the IC50 values from at least three independent experiments.

A2780 cells = assay: Antiproliferative MTT assay; assay type: cell-based; conditions: Homo sapiens, A2780, 48 h, read-out: Antiproliferative IC50
Procedure: as §3

FTC-133 cells = assay: Antiproliferative MTT assay; assay type: cell-based; conditions: Homo sapiens, FTC-133, 48 h, read-out: Antiproliferative IC50
Procedure: as §3

H322 cells = assay: Antiproliferative MTT assay; assay type: cell-based; conditions: Homo sapiens, NCI-H322, 48 h, read-out: Antiproliferative IC50
Procedure: as §3

Hela cells = assay: Antiproliferative MTT assay; assay type: cell-based; conditions: Homo sapiens, 48 h, read-out: Antiproliferative IC50
Procedure: as §3

K562 cells = assay: Antiproliferative MTT assay; assay type: cell-based; conditions: Homo sapiens, K562, 48 h, read-out: Antiproliferative IC50
Procedure: as §3

MDA-MB-231 cells = assay: Antiproliferative MTT assay; assay type: cell-based; conditions: Homo sapiens, MDA-MB-231, 48 h, read-out: Antiproliferative IC50
Procedure: as §3

OS-RC-2 cells = assay: Antiproliferative MTT assay; assay type: cell-based; conditions: Homo sapiens, OS-RC-2, 48 h, read-out: Antiproliferative IC50
Procedure: as §3

SK-NEP-1 cells = assay: Antiproliferative MTT assay; assay type: cell-based; conditions: Homo sapiens, SK-NEP-1, 48 h, read-out: Antiproliferative IC50
Procedure: as §3

SW579 cells = assay: Antiproliferative MTT assay; assay type: cell-based; conditions: Homo sapiens, SW579, 48 h, read-out: Antiproliferative IC50
Procedure: as §3

U266 cells = assay: Antiproliferative MTT assay; assay type: cell-based; conditions: Homo sapiens, U-266, 48 h, read-out: Antiproliferative IC50
Procedure: as §3

U937 cells = assay: Antiproliferative MTT assay; assay type: cell-based; conditions: Homo sapiens, U-937, 48 h, read-out: Antiproliferative IC50
Procedure: as §3

A549 cells = assay: Antiproliferative MTT assay; assay type: cell-based; conditions: Homo sapiens, A549, 48 h, read-out: Antiproliferative IC50
Procedure: (§4) […]. The stock solutions of compounds to be tested were prepared in culture medium. Tumor cell lines were cultured in 96-well plates at a density of 5 × 10^3 cells per well and incubated until 90–95% confluence, and then each well received 100 μL medium containing desired concentrations of test compounds, and then incubated at 37°C and 5% CO2 for 48 h. To determine cell viability, 20 μL MTT working solution (5 mg/mL) was then added to each well and incubated for another 4 h. After this incubation, the medium was carefully aspirated, and 200 μL dimethyl sulfoxide (DMSO) was added to each well and vibrated for 10 min to make sure formed formazans were completely dissolved. The optical densities (ODs) at 490 and 630 nm were counted by Universal Microplate Spectrophotometer. […] Origin 7.5 software was used to calculate the IC50 values from at least three independent experiments.

H460 cells = assay: Antiproliferative MTT assay; assay type: cell-based; conditions: Homo sapiens, NCI-H460, 48 h, read-out: Antiproliferative IC50
Procedure: as §4

SW480 cells = assay: Antiproliferative MTT assay; assay type: cell-based; conditions: Homo sapiens, SW480, 48 h, read-out: Antiproliferative IC50
Procedure: as §4

HepG2 xenograft = assay: In vivo antitumor activity, HepG2 xenograft nude mice model; conditions: 100 mg/kg once a day for 15 days
Procedure: When the tumor is prominent, the BALB/c female mice were randomly assigned into control and treatment groups (six mice per group).
Injected mice were kept for 10 days; those with palpable tumors were then randomly assigned into treatment and control groups (six mice per group). The treatment groups were administrated with 100 mg/kg/d test compound intragastrically, whereas the control group was administered with an equal volume of phosphate-buffered saline (PBS) solution. The tumor size and body weight were assessed every day. After 15 days of treatment, the mice were euthanized, and tumor weights were acquired with an electronic balance.

HepG2 cells [3] = assay: Cell apoptosis assay (annexin V-FITC/PI, flow cytometry); assay type: cell-based, human; conditions: 24 h, normal group 5.83%
Procedure: Then cells were washed with PBS, collected, and resuspended with binding buffer from a commercially available annexin V–FITC kit (Thermo Fisher Co., USA) and mixed with 5 μL of annexin V–FITC gently. Following 10 min of incubation, 1 μL of propidium iodide was added to the samples and incubated for another 20 min while avoiding light. Flow cytometry was used to determine cell apoptosis status (CytoFLEX, Beckman Coulter).

HepG2 cells [4] = assay: Cell cycle analysis (PI, flow cytometry); conditions: 6 h; for Percentage of cells in G2/M phase (third peak): HepG2
Procedure: (§5) Following 6-h incubation, cells were washed twice with cold PBS and then fixed in 70% precooled ethanol at 4°C for 12 h. The fixed cells were washed again and then stained with PI/RNase A for 30 min at room temperature.

HepG2 cells [5] = conditions: 6 h
Procedure: as §5

T8 sequence (O15379 whole entry): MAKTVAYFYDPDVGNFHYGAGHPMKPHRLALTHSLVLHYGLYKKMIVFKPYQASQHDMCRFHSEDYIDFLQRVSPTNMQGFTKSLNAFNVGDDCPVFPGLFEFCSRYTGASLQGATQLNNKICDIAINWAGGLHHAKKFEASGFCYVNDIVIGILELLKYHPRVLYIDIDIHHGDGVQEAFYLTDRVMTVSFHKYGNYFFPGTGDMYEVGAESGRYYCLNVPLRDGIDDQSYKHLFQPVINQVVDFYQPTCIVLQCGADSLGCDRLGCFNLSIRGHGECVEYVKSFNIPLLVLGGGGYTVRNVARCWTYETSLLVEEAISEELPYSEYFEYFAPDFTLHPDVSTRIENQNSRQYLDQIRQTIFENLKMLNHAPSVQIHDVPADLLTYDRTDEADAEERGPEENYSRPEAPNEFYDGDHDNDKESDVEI
T8 sequence (Q9Y618 395-489 partner limits assumed): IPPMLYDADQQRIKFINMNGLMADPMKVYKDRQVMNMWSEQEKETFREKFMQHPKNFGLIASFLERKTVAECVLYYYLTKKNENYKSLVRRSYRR
T7 sequence (Q9UKV0 whole entry): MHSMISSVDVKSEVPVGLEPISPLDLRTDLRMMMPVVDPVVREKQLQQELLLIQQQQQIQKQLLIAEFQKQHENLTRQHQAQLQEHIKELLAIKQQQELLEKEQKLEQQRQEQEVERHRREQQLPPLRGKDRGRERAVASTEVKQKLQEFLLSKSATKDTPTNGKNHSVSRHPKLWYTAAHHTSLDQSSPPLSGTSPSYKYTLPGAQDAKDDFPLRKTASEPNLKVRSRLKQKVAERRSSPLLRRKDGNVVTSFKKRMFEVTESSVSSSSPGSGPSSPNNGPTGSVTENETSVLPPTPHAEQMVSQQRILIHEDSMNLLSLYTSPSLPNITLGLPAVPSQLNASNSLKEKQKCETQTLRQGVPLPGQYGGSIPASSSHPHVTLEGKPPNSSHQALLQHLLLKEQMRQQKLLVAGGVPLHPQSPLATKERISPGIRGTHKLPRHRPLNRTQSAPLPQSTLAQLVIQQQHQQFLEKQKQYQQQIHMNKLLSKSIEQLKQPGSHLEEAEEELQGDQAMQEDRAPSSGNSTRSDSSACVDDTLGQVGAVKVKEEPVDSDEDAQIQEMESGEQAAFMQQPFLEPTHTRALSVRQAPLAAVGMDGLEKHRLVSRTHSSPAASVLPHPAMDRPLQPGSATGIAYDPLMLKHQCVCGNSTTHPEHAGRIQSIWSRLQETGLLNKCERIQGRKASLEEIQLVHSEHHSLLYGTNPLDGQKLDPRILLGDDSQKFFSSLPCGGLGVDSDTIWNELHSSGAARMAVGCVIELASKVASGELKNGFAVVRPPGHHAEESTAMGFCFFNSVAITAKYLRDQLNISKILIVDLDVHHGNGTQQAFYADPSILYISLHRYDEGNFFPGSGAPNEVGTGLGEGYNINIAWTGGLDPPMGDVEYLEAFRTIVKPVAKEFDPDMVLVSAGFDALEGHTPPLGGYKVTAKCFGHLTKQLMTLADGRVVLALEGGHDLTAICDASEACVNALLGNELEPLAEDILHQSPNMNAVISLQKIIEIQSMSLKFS
T1 sequence (Q13547 whole entry): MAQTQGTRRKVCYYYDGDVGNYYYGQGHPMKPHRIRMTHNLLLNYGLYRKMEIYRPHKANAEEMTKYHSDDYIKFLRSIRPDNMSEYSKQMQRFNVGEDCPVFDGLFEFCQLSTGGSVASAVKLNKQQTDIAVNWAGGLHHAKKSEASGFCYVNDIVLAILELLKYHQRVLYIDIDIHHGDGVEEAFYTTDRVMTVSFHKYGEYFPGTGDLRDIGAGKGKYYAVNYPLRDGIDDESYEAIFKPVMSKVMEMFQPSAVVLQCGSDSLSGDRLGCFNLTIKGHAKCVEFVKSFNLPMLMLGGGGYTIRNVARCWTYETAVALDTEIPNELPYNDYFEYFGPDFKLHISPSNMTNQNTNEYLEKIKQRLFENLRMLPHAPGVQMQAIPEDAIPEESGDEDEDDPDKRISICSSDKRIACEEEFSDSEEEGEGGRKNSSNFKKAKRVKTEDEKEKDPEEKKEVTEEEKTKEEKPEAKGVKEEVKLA
T2 sequence (Q9UBN7 whole entry): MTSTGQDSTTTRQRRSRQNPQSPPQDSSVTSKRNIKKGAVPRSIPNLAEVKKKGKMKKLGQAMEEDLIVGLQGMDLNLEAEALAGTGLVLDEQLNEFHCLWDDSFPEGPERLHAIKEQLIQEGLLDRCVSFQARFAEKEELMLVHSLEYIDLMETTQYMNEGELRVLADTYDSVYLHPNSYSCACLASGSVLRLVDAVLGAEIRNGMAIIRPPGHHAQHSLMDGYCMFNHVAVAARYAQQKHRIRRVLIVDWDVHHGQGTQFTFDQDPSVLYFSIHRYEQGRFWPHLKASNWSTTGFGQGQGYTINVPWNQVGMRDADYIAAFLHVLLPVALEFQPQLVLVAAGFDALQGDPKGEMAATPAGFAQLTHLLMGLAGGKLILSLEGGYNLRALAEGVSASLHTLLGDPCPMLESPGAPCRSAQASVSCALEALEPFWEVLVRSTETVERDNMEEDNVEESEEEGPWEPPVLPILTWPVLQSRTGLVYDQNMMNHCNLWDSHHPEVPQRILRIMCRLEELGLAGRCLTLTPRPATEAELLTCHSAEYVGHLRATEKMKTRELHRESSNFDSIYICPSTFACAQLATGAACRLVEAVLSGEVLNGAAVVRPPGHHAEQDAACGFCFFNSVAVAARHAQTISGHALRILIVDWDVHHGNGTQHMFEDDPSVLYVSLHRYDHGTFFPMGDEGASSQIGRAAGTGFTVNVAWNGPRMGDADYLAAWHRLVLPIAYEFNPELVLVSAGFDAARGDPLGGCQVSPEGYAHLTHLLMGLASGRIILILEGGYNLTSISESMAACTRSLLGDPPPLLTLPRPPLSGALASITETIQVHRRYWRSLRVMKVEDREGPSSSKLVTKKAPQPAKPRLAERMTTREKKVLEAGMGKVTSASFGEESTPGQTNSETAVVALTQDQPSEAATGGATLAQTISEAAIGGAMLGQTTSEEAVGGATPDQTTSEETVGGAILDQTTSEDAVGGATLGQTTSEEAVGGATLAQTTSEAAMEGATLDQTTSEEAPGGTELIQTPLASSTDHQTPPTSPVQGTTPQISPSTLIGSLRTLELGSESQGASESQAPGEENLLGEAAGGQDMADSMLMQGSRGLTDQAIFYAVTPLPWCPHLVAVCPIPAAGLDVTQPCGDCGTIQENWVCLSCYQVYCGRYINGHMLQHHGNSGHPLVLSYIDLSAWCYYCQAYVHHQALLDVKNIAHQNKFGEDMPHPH
T3 sequence (Q8WUI4 whole entry): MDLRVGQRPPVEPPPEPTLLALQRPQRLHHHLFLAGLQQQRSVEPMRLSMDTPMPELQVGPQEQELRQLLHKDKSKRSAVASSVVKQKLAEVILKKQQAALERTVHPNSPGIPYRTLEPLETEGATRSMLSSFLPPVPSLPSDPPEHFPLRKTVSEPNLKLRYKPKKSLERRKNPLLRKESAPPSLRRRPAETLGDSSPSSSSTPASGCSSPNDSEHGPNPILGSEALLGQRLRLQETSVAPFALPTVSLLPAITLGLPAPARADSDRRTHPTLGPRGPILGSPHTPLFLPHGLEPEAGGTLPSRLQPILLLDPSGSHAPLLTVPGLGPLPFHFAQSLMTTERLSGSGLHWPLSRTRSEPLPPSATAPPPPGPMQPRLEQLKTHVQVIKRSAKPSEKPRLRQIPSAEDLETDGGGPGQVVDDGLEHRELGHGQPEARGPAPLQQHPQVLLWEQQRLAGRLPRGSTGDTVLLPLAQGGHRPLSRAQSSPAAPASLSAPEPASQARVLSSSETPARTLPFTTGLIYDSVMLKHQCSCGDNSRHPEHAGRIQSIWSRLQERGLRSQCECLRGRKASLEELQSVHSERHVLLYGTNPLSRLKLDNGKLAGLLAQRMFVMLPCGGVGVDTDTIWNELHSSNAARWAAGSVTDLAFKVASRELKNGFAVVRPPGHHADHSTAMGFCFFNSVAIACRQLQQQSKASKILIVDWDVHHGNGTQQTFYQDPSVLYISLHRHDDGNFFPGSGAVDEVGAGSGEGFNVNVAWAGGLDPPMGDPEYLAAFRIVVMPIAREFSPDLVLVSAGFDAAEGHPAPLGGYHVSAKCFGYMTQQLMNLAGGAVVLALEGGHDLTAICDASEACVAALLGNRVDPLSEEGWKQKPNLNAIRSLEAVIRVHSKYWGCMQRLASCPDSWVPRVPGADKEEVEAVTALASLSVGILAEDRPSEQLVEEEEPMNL
T4 sequence (Q92769 whole entry): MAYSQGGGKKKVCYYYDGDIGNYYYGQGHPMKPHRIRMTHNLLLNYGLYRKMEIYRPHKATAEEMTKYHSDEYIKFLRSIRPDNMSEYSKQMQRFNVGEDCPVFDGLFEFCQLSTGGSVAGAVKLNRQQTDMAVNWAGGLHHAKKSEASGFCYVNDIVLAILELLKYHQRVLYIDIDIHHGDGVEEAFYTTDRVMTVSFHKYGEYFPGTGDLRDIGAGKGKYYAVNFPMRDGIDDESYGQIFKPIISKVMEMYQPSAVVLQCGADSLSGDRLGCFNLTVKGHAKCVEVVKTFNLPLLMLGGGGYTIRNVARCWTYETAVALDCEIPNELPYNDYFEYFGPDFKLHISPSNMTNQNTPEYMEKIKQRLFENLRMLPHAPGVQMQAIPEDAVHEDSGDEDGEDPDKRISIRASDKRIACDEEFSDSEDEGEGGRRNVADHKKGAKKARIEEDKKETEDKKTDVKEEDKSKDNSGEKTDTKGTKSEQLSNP
T6 sequence (Q9BY41 whole entry): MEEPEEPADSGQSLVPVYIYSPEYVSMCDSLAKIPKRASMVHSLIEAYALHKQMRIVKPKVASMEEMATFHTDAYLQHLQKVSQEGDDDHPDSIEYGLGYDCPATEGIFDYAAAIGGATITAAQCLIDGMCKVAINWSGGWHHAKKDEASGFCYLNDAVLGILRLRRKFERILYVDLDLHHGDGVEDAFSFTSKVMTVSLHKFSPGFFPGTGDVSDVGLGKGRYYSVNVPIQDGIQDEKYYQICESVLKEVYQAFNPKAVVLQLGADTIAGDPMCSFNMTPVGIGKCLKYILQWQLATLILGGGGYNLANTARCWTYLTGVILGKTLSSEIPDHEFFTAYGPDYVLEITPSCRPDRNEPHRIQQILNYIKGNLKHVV

Structure (SMILES): CC[C@@]1(O)C(=O)OCc2c1cc1n(c2=O)Cc2cc3ccccc3nc2-1 [camptothecin]
- inhibition at 0.25 µM (HepG2 cells [1]; HepG2, camptothecin 0.25 μM alone): 61.7%
- inhibition at 0.5 µM (HepG2 cells [1]; HepG2, camptothecin 0.5 μM alone): 60.9%

Structure (SMILES): CC(=O)O[C@H]1C(=O)[C@@]2(C)[C@H]([C@H](OC(=O)c3ccccc3)[C@]3(O)C[C@H](OC(=O)[C@H](O)[C@@H](NC(=O)c4ccccc4)c4ccccc4)C(C)=C1C3(C)C)[C@]1(OC(C)=O)CO[C@@H]1C[C@@H]2O [taxol]
- inhibition at 0.1 µM (HepG2 cells [1]; HepG2, taxol 0.1 μM alone): 57.1%
- inhibition at 0.2 µM (HepG2 cells [1]; HepG2, taxol 0.2 μM alone): 62.4%

Structure (SMILES): Nc1ccccc1NC(=O)c1ccc(N(CCCl)CCCl)cc1 [NA, N-(2-aminophenyl)-4-(bis(2-chloroethyl)amino)benzamide]
- In vivo potency compared with SAHA (HepG2 cells xenograft): lower potency than SAHA

Structure (SMILES): Nc1cc(F)ccc1NC(=O)c1ccc(N(CCCl)CCCl)cc1 [FNA, N-(2-amino-4-fluorophenyl)-4-[bis-(2-chloroethyl)-amino]-benzamide]
- IC50 (HDAC1): 0.843 µM
- IC50 (HDAC6): > 5 µM
- IC50 (HDAC7): > 5 µM
- IC50 (HDAC2): 0.949 µM
- IC50 (HDAC4): > 5 µM
- IC50 (HDAC8): > 5 µM
- IC50 (HDAC9): > 5 µM
- HDAC3 selectivity vs. HDAC1 (HDAC3; ratio of IC50 values): 8.83 fold
- HDAC3 selectivity vs. HDAC2 (HDAC3; ratio of IC50 values): 9.94 fold
- IC50 (HDAC3; recombinant enzyme, n ≥ 2, SD <10% of mean): 0.0955 µM
- Potency relative to SAHA in inhibition of the growth of HepG2 cells (HepG2 cells [2]; HepG2, ratio of IC50 values): 13.3 fold
- IC50 (HepG2 cells [2]; Homo sapiens, HepG2, 48 h, read-out: Antiproliferative IC50): 1.3 ± 0.25 µM
- IC50 (A2780 cells): 4.3 ± 0.12 µM
- IC50 (FTC-133 cells): 9.09 ± 0.13 µM
- IC50 (H322 cells): 6.36 ± 0.07 µM
- IC50 (Hela cells): 1.41 ± 0.04 µM
- IC50 (K562 cells): 1.31 ± 0.05 µM
- IC50 (MDA-MB-231 cells): 35.29 ± 0.03 µM
- IC50 (OS-RC-2 cells): > 100 µM
- IC50 (SK-NEP-1 cells): 8.32 ± 0.18 µM
- IC50 (SW579 cells): 52.4 ± 0.13 µM
- IC50 (U266 cells): 0.63 ± 0.32 µM
- IC50 (U937 cells): 0.55 ± 0.03 µM
- IC50 (A549 cells): 33.74 ± 0.04 µM
- IC50 (H460 cells): 4.73 ± 0.05 µM
- IC50 (SW480 cells): > 100 µM
- Tumor growth inhibition (TGI) rate (HepG2 xenograft): 48.89%
- Apoptosis rate of HepG2 cells (HepG2 cells [3]; 1 μM): 14.08%
- Apoptosis rate of HepG2 cells (HepG2 cells [3]; 3 μM): 19.11%
- Apoptosis rate of HepG2 cells (HepG2 cells [3]; 9 μM): 28.83%
- Percentage of cells in G2/M phase (third peak) (HepG2 cells [4]; 0.125 μM): 18.84%
- Percentage of cells in G2/M phase (third peak) (HepG2 cells [4]; 0.5 μM): 59.36%

Structure (SMILES): O=C(CCCCCCC(=O)Nc1ccccc1)NO [SAHA, Vorinostat]
- IC50 (H460 cells): 7.63 ± 0.03 µM
- IC50 (SW480 cells): 2.91 ± 0.04 µM
- Apoptosis rate of HepG2 cells (HepG2 cells [3]; 1 μM): 10.03%
- Apoptosis rate of HepG2 cells (HepG2 cells [3]; 9 μM): 12.43%
- Percentage of cells, first peak of cell cycle histogram (phase not given) (HepG2 cells [5]; 0.125 μM): 57.65%
- Percentage of cells, second peak of cell cycle histogram (phase not given) (HepG2 cells [5]; 0.125 μM): 25.02%
- Percentage of cells, first peak of cell cycle histogram (phase not given) (HepG2 cells [5]; 0.25 μM): 56.26%
- Percentage of cells, second peak of cell cycle histogram (phase not given) (HepG2 cells [5]; 0.25 μM): 26.33%
- Percentage of cells, first peak of cell cycle histogram (phase not given) (HepG2 cells [5]; 0.5 μM): 64.73%
- Percentage of cells, second peak of cell cycle histogram (phase not given) (HepG2 cells [5]; 0.5 μM): 23.27%
- Effect in the regulation of HepG2 cell cycle (HepG2 cells [4]; 0.125, 0.25 and 0.5 μM): did not exhibit any effects
